Test results as given in ChEMBL document CHEMBL1121960, “Importance of the aromatic ring in adrenergic amines. 8. 2-(Aminomethyl)-trans-2-decalols as inhibitors of norepinephrine N-methyltransferase” (J Med Chem, 1982).

T1: Phenylethanolamine N-methyltransferase (Bos taurus, UniProt P10938)
T1 sequence (P10938 whole entry): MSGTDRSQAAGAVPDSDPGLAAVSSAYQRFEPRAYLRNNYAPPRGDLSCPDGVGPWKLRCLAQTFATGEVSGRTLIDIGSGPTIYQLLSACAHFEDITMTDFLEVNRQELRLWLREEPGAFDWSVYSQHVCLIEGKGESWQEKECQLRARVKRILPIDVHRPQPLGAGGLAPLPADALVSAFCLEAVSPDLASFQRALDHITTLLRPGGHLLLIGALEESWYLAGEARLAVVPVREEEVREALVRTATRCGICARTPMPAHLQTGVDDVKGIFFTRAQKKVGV


Columns and labels:
[1] = target: T1, Phenylethanolamine N-methyltransferase; assay: Tested for inhibitory activity against bovine adrenal norepinephrine N-methyl-transferase using phenylethanolamine as substrate
[2] = Vmax was determined; type: ADME
[3] = compound: NCC1(O)CCCCCCCCCC1; assay: (§1) Tested for inhibitory constant against bovine adrenal norepinephrine N-methyl-transferase
[4] = compound: NC[C@@]1(O)CCC2CCCCC2C1; assay: as §1
[5] = compound: NC[C@]1(O)CCC2CCCCC2C1; assay: as §1

Ki [1] [µM]	Vmax [2] [nmol/min/mg]	Molecule	Km [3] [µM]	Km [4] [µM]	Km [5] [µM]
3.56	0.04	NCC1(O)CCCCCCCCCC1	–	–	–
3.8	0.024	NC[C@]1(O)CCC2CCCCC2C1 (some centres undefined)	–	–	–
5.63	0.03	NC[C@@]1(O)CCC2CCCCC2C1 (some centres undefined)	–	–	–
–	–	Phenylethanolamine N-methyltransferase (Bos taurus), P10938 (protein) MSGTDRSQAAGAVPDSDPGLAAVSSAYQRFEPRAYLRNNYAPPRGDLSCPDGVGPWKLRCLAQTFATGEVSGRTLIDIGSGPTIYQLLSACAHFEDITMTDFLEVNRQELRLWLREEPGAFDWSVYSQHVCLIEGKGESWQEKECQLRARVKRILPIDVHRPQPLGAGGLAPLPADALVSAFCLEAVSPDLASFQRALDHITTLLRPGGHLLLIGALEESWYLAGEARLAVVPVREEEVREALVRTATRCGICARTPMPAHLQTGVDDVKGIFFTRAQKKVGV	6.8	4.7	5.7
